Laboratory results from US7285556B2, “Thienopyrimidine-based inhibitors of the src family” (Board of Regents, The University of Texas Systems, priority 2000, dated 2007).
Where two headings read alike, the source gives them in different places.

What was measured:
Csk = molecular target: T1, Csk (Homo sapiens, UniProt P41240); experiment: Csk tyrosine kinase activity, poly E4Y and 32P-ATP; assay type: biochemical; settings: screening assay, 50 μg/ml poly E4Y, 0.2 mM 32P-ATP
T1 construct: GST (glutathione-S-transferase) (N); made in house; host or cells: E. coli (pGEX vector)
T1 sequence (P41240 whole entry, species assumed): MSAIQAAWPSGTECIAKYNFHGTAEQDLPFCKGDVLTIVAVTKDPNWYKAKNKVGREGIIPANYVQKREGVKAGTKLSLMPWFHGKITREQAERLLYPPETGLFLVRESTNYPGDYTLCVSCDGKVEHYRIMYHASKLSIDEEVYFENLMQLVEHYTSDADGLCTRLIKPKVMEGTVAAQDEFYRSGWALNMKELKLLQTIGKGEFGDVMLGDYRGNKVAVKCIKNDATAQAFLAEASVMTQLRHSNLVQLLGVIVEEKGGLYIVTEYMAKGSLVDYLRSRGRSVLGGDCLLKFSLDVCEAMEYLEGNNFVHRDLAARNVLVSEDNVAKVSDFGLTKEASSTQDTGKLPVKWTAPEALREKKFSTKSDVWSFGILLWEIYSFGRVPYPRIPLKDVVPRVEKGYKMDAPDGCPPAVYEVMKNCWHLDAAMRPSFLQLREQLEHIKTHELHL
Protocol: (§1) Recombinant human Src was expressed using the baculovirus-insect cell system and purified as published (Budde et al., 1993 and 2000). Recombinant Csk and the FGF receptor (FGFr) were expressed as glutathione-S-transferase fusion proteins using the pGEX expression vector and E. coli, and purified as described (Sun & Budde, 1995).
(§2) The tyrosine kinase activity of Src, Csk and FGFr was determined using poly E4Y and ^32P-ATP. Briefly, enzymes were assayed in a reaction mixture consisting of 0.15 M EPPS-NaOH (pH 8.0) with 6 mM MgCl2, 0.2 mM γ^32P-ATP (0.2-0.4 mCi/μmol), 10% glycerol, 0.1% Triton X-100, and poly E4Y. Poly E4Y is a synthetic peptide whose phosphorylation is measured in this assay by the addition of the radioactively labeled phosphate from the ATP (Budde et al., 1995). […] When ATP was varied (0, 50, 100 and 250 μM), poly E4Y was kept constant at 150 μg/ml.

Recombinant human Src = molecular target: T2, Recombinant human Src (Homo sapiens, UniProt P12931); experiment: Src tyrosine kinase activity, poly E4Y and 32P-ATP; assay type: biochemical
T2 construct: made in house; host or cells: baculovirus-insect cell system
T2 sequence (P12931 whole entry): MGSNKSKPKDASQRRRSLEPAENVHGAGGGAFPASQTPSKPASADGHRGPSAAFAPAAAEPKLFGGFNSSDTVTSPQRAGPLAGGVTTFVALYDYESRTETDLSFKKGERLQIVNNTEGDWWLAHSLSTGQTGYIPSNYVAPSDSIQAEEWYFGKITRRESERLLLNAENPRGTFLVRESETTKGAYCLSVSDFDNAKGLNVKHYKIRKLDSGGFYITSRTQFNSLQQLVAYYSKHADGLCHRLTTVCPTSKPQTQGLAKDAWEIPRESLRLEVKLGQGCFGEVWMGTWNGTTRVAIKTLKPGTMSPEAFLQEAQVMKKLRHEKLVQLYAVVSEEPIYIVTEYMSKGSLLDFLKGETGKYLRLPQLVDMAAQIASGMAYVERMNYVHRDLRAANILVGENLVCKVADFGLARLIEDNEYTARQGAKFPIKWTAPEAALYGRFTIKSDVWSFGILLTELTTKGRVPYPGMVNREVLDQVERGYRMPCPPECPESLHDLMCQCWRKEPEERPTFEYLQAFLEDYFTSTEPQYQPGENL
Protocol: as §1, §2

[1] = Table 2, read-out: Src IC50 (especially good inhibitors of Src)
[2] = read-out: IC50 (preferred compounds for treatment of Src family-related disease)
[3] = screening assay, 50 μg/ml poly E4Y, 0.2 mM 32P-ATP, read-out: Src IC50

Compound	IC50 (Csk) [µM]	IC50 (Recombinant human Src; [1]) [nM]	IC50 (Recombinant human Src; [2]) [nM]	IC50 (Recombinant human Src; [3]) [nM]
Cc1csc2c(NN=Cc3ccccc3)ncnc12 [Compound 7, Benzaldehyde(7-methylthieno[3,2-d]pyrimidin-4-yl)hydrazone]	> 186	≤ 2000	< 2000	
COc1ccc(C=NNc2ncnc3c(C)csc23)cc1 [Compound 14, 4-Methoxybenzaldehyde(7-methylthieno[3,2-d]pyrimidin-4-yl)hydrazone]	> 168	≤ 2000	< 2000	
Cc1csc2c(NN=Cc3ccncc3)ncnc12 [Compound 16, 4-Pyridinecarboxaldehyde(7-methylthieno[3,2-d]pyrimidin-4-yl)hydrazone]	> 186	≤ 2000	< 2000	
COc1ccc(C=NNc2ncnc3c(C)csc23)cc1OC [Compound 17, 3,4-Dimethoxybenzaldehyde(7-methylthieno[3,2-d]pyrimidin-4-yl)hydrazone]	> 152	≤ 2000	< 2000	
COc1cc(C=NNc2ncnc3c(C)csc23)cc(OC)c1 [Compound 18, 3,5-Dimethoxybenzaldehyde(7-methylthieno[3,2-d]pyrimidin-4-yl)hydrazone]	> 152	≤ 2000	< 2000	
Cc1csc2c(NN=Cc3cccc(Cl)c3)ncnc12 [Compound 19, 3-Chlorobenzaldehyde(7-methylthieno[3,2-d]pyrimidin-4-yl)hydrazone]	> 165	≤ 2000	< 2000	
Cc1csc2c(NN=Cc3ccc([N+](=O)[O-])cc3)ncnc12 [Compound 24]	> 160			> 160000
Cc1csc2c(NN=Cc3ccc[nH]3)ncnc12 [Compound 30, 1H-Pyrrole-2-carboxaldehyde(7-methylthieno[3,2-d]pyrimidin-4-yl)hydrazone]	> 194	≤ 2000	< 2000	
Cc1csc2c(NN=Cc3ccco3)ncnc12 [Compound 31, 2-Furancarboxaldehyde(7-methylthieno[3,2-d]pyrimidin-4-yl)hydrazone]	> 194	≤ 2000	< 2000	
Cc1csc2c(NN=Cc3cccc(O)c3)ncnc12 [Compound 32, 3-Hydroxybenzaldehyde(7-methylthieno[3,2-d]pyrimidin-4-yl)hydrazone]	> 176	≤ 2000	< 2000	
Cc1csc2c(NN=Cc3ccsc3)ncnc12 [Compound 33, 3-Thiophenecarboxaldehyde(7-methylthieno[3,2-d]pyrimidin-4-yl)hydrazone]	> 182	≤ 2000	< 2000	
Cc1csc2c(NN=Cc3ccccc3O)ncnc12 [Compound 44]	> 176			> 176000
CCOc1ccc(C=NNc2ncnc3c(C)csc23)cc1 [Compound 48, 4-Ethoxybenzaldehyde(7-methylthieno[3,2-d]pyrimidin-4-yl)hydrazone]	> 160	≤ 2000	< 2000	
CCOc1cc(C=NNc2ncnc3c(C)csc23)ccc1O [Compound 50, 3-Ethoxy-4-hydroxybenzaldehyde(7-methylthieno[3,2-d]pyrimidin-4-yl)hydrazone]	> 152	≤ 2000	< 2000	
Cc1csc2c(NN=Cc3cccc(F)c3)ncnc12 [Compound 52, 3-Fluorobenzaldehyde(7-methylthieno[3,2-d]pyrimidin-4-yl)hydrazone]	> 175	≤ 2000	< 2000	
COc1cc(C=NNc2ncnc3c(C)csc23)ccc1O [Compound 53, 4-Hydroxy-3-methoxybenzaldehyde(7-methylthieno[3,2-d]pyrimidin-4-yl)hydrazone]	> 159	≤ 2000	< 2000	
Fc1ccc(C=NNc2ncnc3cc(-c4ccccc4)sc23)cc1 [Compound 75, 4-Fluorobenzaldehyde(6-phenylthieno[3,2-d]pyrimidin-4-yl)hydrazone]	> 144	≤ 2000	< 2000	
Cc1ccc(C=NNc2ncnc3c(C)csc23)s1 [Compound 120, 5-Methyl-2-thiophenecarboxaldehyde(7-methylthieno[3,2-d]pyrimidin-4-yl)hydrazone]	> 173	≤ 2000	< 2000	
Cc1csc2c(NN=Cc3ccc(C#N)cc3)ncnc12 [Compound 121, 4-Cyanobenzaldehyde(7-methylthieno[3,2-d]pyrimidin-4-yl)hydrazone]	> 170	≤ 2000	< 2000	

Compound	IC50 (Csk) [µM]	IC50 (Recombinant human Src; [1]) [nM]	IC50 (Recombinant human Src; [2]) [nM]	IC50 (Recombinant human Src; [3]) [nM]
Cc1csc2c(NN=Cc3cccc(C#N)c3)ncnc12 [Compound 122, 3-Cyanobenzaldehyde(7-methylthieno[3,2-d]pyrimidin-4-yl)hydrazone]	> 170	≤ 2000	< 2000	
COc1cccc(C=NNc2ncnc3c(C)csc23)c1 [Compound 137, 3-Methoxybenzaldehyde(7-methylthieno[3,2-d]pyrimidin-4-yl)hydrazone]	> 168	≤ 2000	< 2000	
CCOc1cccc(C=NNc2ncnc3c(C)csc23)c1 [Compound 138, 3-Ethoxybenzaldehyde(7-methylthieno[3,2-d]pyrimidin-4-yl)hydrazone]	> 160	≤ 2000	< 2000	
Brc1csc2c(NN=Cc3cccnc3)ncnc12 [Compound 180, 3-Pyridinecarboxaldehyde(7-bromothieno[3,2-d]pyrimidin-4-yl)hydrazone]	> 150	≤ 2000	< 2000	
C(=NNc1ncnc2c(-c3ccsc3)csc12)c1cccnc1 [Compound 209]	> 148			> 148000
Brc1cc2ncnc(NN=Cc3cccnc3)c2s1 [Compound 221, 3-Pyridinecarboxaldehyde(6-bromothieno[3,2-d]pyrimidin-4-yl)hydrazone]	> 150	≤ 2000	< 2000	
C(=NNc1ncnc2c1sc1ncccc12)c1cccs1 [Compound 244, 2-Thiophenecarboxaldehyde(pyrido[3′,2′:4,5]thieno[3,2-d]pyrimidin-4-yl)hydrazone]	> 161	≤ 2000	< 2000	
COc1ccc(C=NNc2ncnc3c2sc2ncccc23)cc1O [Compound 247, 3-Hydroxy-4-methoxybenzaldehyde(pyrido[3′,2′:4,5]thieno[3,2-d]pyrimidin-4-yl)hydrazone]	> 142	≤ 2000	< 2000	
C(=NNc1ncnc2cc(-c3ccccc3)sc12)c1ccncc1 [Compound 252, 4-Pyridinecarboxaldehyde(6-phenylthieno[3,2-d]pyrimidin-4-yl)hydrazone]	> 151	≤ 2000	< 2000	
CCc1csc2c(NN=Cc3cccnc3)ncnc12 [Compound 257, 3-Pyridinecarboxaldehyde(7-ethylthieno[3,2-d]pyrimidin-4-yl)hydrazone]	> 176	≤ 2000	< 2000	
CCCc1csc2c(NN=Cc3cccnc3)ncnc12 [Compound 264, 3-Pyridinecarboxaldehyde(7-propylthieno[3,2-d]pyrimidin-4-yl)hydrazone]	> 168	≤ 2000	< 2000	
Fc1ccc(-c2cc3ncnc(NN=Cc4cccnc4)c3s2)cc1 [Compound 278, 3-Pyridinecarboxaldehyde(6-(4-fluorophenyl)thieno[3,2-d]pyrimidin-4-yl)hydrazone]	> 143	≤ 2000	< 2000	
CS(=O)(=O)c1ccc(-c2cc3ncnc(NN=Cc4cccnc4)c3s2)cc1 [Compound 290, 3-Pyridinecarboxaldehyde(6-(4-methanesulphonylphenyl)thieno-[3,2-d]pyrimidin-4-yl)hydrazone]	> 122	≤ 2000	< 2000	
O=C(O)c1ccc(C=NNc2ncnc3cc(-c4ccc(Cl)cc4)sc23)cc1 [Compound 309, 4-Carboxybenzaldehyde(6-(4-chlorophenyl)thieno[3,2-d]pyrimidin-4-yl)hydrazone]	> 122	≤ 2000	< 2000	
Clc1ccccc1-c1cc2ncnc(NN=Cc3cccnc3)c2s1 [Compound 317, 3-Pyridinecarboxaldehyde(6-(2-chlorophenyl)thieno[3,2-d]pyrimidin-4-yl)hydrazone]	> 137	≤ 2000	< 2000	
Clc1ccccc1-c1cc2ncnc(NN=Cc3cccs3)c2s1 [Compound 320, 2-Thiophenecarboxaldehyde(6-(2-chlorophenyl)thieno[3,2-d]pyrimidin-4-yl)hydrazone]	> 135	≤ 2000	< 2000	
Cc1c(-c2ccccc2)sc2c(NN=Cc3cccs3)ncnc12 [Compound 361, 2-Thiophenecarboxaldehyde(7-methyl-6-phenylthieno[3,2-d]pyrimidin-4-yl)hydrazone]	> 143	≤ 2000	< 2000	
COc1ccc(C=NNc2ncnc3c(C)c(-c4ccccc4)sc23)cc1O [Compound 362, 3-Hydroxy-4-methoxybenzaldehyde(7-methyl-6-phenylthieno[3,2-d]pyrimidin-4-yl)hydrazone]	> 128	≤ 2000	< 2000	
